Test results reported in patent publication US7598234B2, “Steroid derived antibiotics” (Brigham Young University, priority 1998, dated 2009).
Converted amounts (≈) assume the structure as drawn.

Assays:
E. coli (ATCC 10798) [1] = assay: MIC and MBC measurement with E. coli (ATCC 10798); type: cell-based, Escherichia coli
Text: (§1) General: Microorganisms. Reference strains were purchased from the American Type Culture Collection (Rockville, Md.) or Bactrol disks from Difeo Laboratories (Detroit, Mich.). The following specific ATCC strains were used: 10798 Escherichia coli, 25922 Escherichia coli, 13883 Klebsiella pneumoniae, 27853 Pseudomonas aeruginosa, 14028 Salmonella typhimurium, 29212 Enterococcus faecalis, 25923 Staphylococcus aureus, 19615 Streptococcus pyogenes, and 90028 Candida albicans. Bacterial strains were maintained on Mueller-Hinton agar plates, and Candida albicans was maintained on Sabouraud Dextrose agar plates.
(§2) Tryptic soy broth (TSB) was made by dissolving 27.5 grams of tryptic soy broth without dextrose (DIFCO Laboratories) in 1 liter of deionized water and sterilizing at 121° C. for 15 minutes. Solid agar (TSA) plates were made by dissolving 6.4 grams of tryptic soy broth and 12 grams of agar (purified grade, Fischer Scientific) in 800 mL of deionized water and sterilizing at 121° C. for 20 minutes. Aliquots (20 mL) of the homogeneous solution were then poured in sterile plastic petri dishes (100×15 mm, Fisher Scientific). Solutions of compounds were made by dissolving the HCl salt of the respective compound into an appropriate amount of deionized and sterilized water followed by microfiltration.
(§3) Aliquots of 1 mL of the suspension were added to test tubes containing 1 mL TSB and incrementally varied concentrations of cholic acid derivatives and/or erythromycin or novobiocin. In the sensitization experiments, erythromycin or novobiocin were added 15 minutes later than the cholic acid derivatives. The samples were subjected to stationary incubation at 37° C. for 24 hours. Sample turbidity was determined by measuring absorption at 760 nm (HP 8453 UV-Visible Chemstation, Hewlett Packard). Additionally, an alliquot from each of the samples showing no measurable turbidity was subcultured on TSA plates (alliquots were diluted to provide fewer than 300 CFU). Colonies that grew on the subculture after overnight incubation were counted and the number of CFU/mL in the samples were calculated. The calculated values were compared to the number of CFU/mL in the original inoculum.

E. coli (ATCC 10798) [2] = assay: Sensitization to erythromycin (concentration lowering the MIC of erythromycin), E. coli (ATCC 10798); type: cell-based, Escherichia coli; conditions: for (a) Concentration required to lower the MIC of erythromycin from 70 to 1 μg/mL / (b) MBC with 1 μg/mL erythromycin / FIC values with erythromycin: Table 9, Escherichia coli (ATCC 10798); for MIC: concentration required to lower the MIC of erythromycin from 70 μg/mL to 1 μg/mL / MBC (with erythromycin): Table 2; for MBC (with erythromycin): erythromycin sensitization
Description: (§4) Alternatively, “fractional inhibitory concentration (FIC)” is also useful for determination of synergy between the compounds of the invention, or the compounds in combination with known antibiotics. FICs can be performed by checkerboard titrations of compounds in one dimension of a microtiter plate, and of antibiotics in the other dimension, for example. The FIC is calculated by looking at the impact of one antibiotic on the MIC of the other and vice versa. […] Preferably, an FIC of less than 0.5 is obtained for synergism. As used herein, FIC can be determined as follows:
as §3
(§5) Ability to permeabilize outer membrane: Compounds 11, 106, and 108-114 (FIG. 1) were tested for antibiotic activity. They were also tested for the ability to permeabilize the outer membrane of Gram-negative bacteria, causing sensitization to hydrophobic antibiotics that cannot cross the outer membrane. The permeabilization of the outer membrane was measured using erythromycin and novobiocin.
(§6) The MICs of erythromycin and novobiocin against E. coli (ATCC 10798) at 70 and >500 μg/mL were measured.

E. coli (ATCC 10798) [3] = assay: Sensitization to novobiocin (concentration lowering the MIC of novobiocin), E. coli (ATCC 10798); type: cell-based, Escherichia coli; conditions: for (d) Concentration required to lower the MIC of novobiocin from >500 to 1 μg/mL / FIC values with novobiocin: Table 9, Escherichia coli (ATCC 10798)
Description: as §4, §3, §5, §6

[4] = test system: Pseudomonas aeruginosa (ATCC 27853); assay: MIC and MBC measurement with Pseudomonas aeruginosa (ATCC 27853); type: cell-based; conditions: P. aureginosa (ATCC 27853); for MIC: Table 6; for MIC of the antibiotic alone: starting MIC in sensitization tests
Text: as §1, §2, §3

[5] = test system: Pseudomonas aeruginosa (ATCC 27853); assay: Sensitization to erythromycin, Pseudomonas aeruginosa (ATCC 27853); type: cell-based; conditions: Table 7; P. aureginosa (ATCC 27853)
Description: as §4
as §3, with “inoculum. […]” for “inoculum.”
To measure permeabilization, the FIC values for compounds 1, 2, 5, 106, 10, 112, 133, and 134 with erythromycin, novobiocin, and rifampicin were determined. Concentrations of 0.5, 1.0 or 3.0 μg/mL of these antibiotics were used, and the concentrations of the cholic acid derivatives required to inhibit bacterial growth of Gram-negative strains were determined.

E. coli (ATCC 25922) = assay: MIC and MBC measurement with E. coli (ATCC 25922); type: cell-based, Escherichia coli
Text: as §1, §2
as §3, with “inoculum. […]” for “inoculum.”

[6] = test system: Staphylococcus aureus ATCC 25923; assay: MIC and MBC measurement with Staphylococcus aureus ATCC 25923; type: cell-based; conditions: Table 10; Staphylococcus aureus ATCC 25923
Text: as §1, §2
as §3, with “inoculum. […]” for “inoculum.”

[7] = Table 9, Escherichia coli (ATCC 10798)

Molecule	MBC (E. coli (ATCC 10798) [1]; [7]) [µg/mL]	MIC (E. coli (ATCC 10798) [1]; [7]) [µg/mL]	(a) Concentration required to lower the MIC of erythromycin from 70 to 1 μg/mL (E. coli (ATCC 10798) [2]) [µg/mL]	(b) MBC with 1 μg/mL erythromycin (E. coli (ATCC 10798) [2]) [µg/mL]	FIC values with erythromycin (E. coli (ATCC 10798) [2])	FIC values with novobiocin (E. coli (ATCC 10798) [3])	MIC (E. coli (ATCC 10798) [1]; Table 1, E. coli (ATCC 10798)) [µg/mL]	MIC: concentration required to lower the MIC of erythromycin from 70 μg/mL to 1 μg/mL (E. coli (ATCC 10798) [2]; E. coli (ATCC 10798)) [µg/mL]	further results
C[C@H](CCCO)[C@H]1CC[C@H]2[C@@H]3[C@H](OCCCN)C[C@@H]4C[C@H](OCCCN)CC[C@]4(C)[C@H]3C[C@H](OCCCN)[C@]12C [Compound 110]	60 (≈ 106 µM)	36 (≈ 63.6 µM)	2.0	50	0.070	0.11	–	–	(d) Concentration required to lower the MIC of novobiocin from >500 to 1 μg/mL (E. coli (ATCC 10798) [3]): 4.0 µg/mL
CCCCCCCCOCCC[C@@H](C)[C@H]1CC[C@H]2[C@@H]3[C@H](OCCCN)C[C@@H]4C[C@H](OCCCN)CC[C@]4(C)[C@H]3C[C@H](OCCCN)[C@]12C [Compound 9]	–	–	–	–	–	–	3 (≈ 4.42 µM)	3	MBC (E. coli (ATCC 10798) [1]; Table 1, E. coli (ATCC 10798)): 10 µg/mL (≈ 14.7 µM); MBC (with erythromycin) (E. coli (ATCC 10798) [2]; E. coli (ATCC 10798)): 3 µg/mL; MIC [4]: 8 µg/mL (≈ 11.8 µM); MIC: concentration required to lower the MIC of erythromycin from 240 μg/mL to 5 μg/mL [5]: 5 µg/mL
C[C@H](CO)[C@H]1CC[C@H]2[C@@H]3[C@H](OCCCN)C[C@@H]4C[C@H](OCCCN)CC[C@]4(C)[C@H]3C[C@H](OCCCN)[C@]12C [Compound 108]	–	–	–	–	0.071	0.17	–	–	–
C[C@H](CCCN(C)Cc1ccccc1)[C@H]1CC[C@H]2[C@@H]3[C@H](OCCN)C[C@@H]4C[C@@H](OCCN)CC[C@]4(C)[C@H]3C[C@H](OCCN)[C@]12C [Compound 8]	–	–	–	–	–	–	46 (≈ 73.4 µM)	10	MIC [4]: 50 µg/mL (≈ 79.7 µM); MIC: concentration required to lower the MIC of erythromycin from 240 μg/mL to 5 μg/mL [5]: 40 µg/mL
CO[C@@H]1[C@@H](OC(N)=O)[C@@H](O)[C@H](Oc2ccc3c(O)c(NC(=O)c4ccc(O)c(CC=C(C)C)c4)c(=O)oc3c2C)OC1(C)C [novobiocin, reference compound]	–	–	–	–	–	–	–	–	MIC of the antibiotic alone [4]: >500 μg/mL to 1 μg/mL with P. aureginosa (ATCC 27853).
C[C@H](CCCN)[C@H]1CC[C@H]2[C@@H]3[C@H](OCCCN)C[C@@H]4C[C@H](OCCCN)CC[C@]4(C)[C@H]3C[C@H](OCCCN)[C@]12C [Compound 135]	–	–	–	–	–	–	–	–	MBC (in words) (E. coli (ATCC 10798) [1]; FIG. 5, strain not named): relatively high; MIC (in words) (E. coli (ATCC 10798) [1]; FIG. 5, strain not named): relatively high
CCCCCOCCC[C@@H](C)[C@H]1CC[C@H]2[C@@H]3[C@H](OCCCN)C[C@@H]4C[C@H](OCCCN)CC[C@]4(C)[C@H]3C[C@H](OCCCN)[C@]12C [Compound 113]	5.0 (≈ 7.86 µM)	3.0 (≈ 4.72 µM)	0.8	2.0	0.28	0.27	–	–	(d) Concentration required to lower the MIC of novobiocin from >500 to 1 μg/mL (E. coli (ATCC 10798) [3]): 1.0 µg/mL
CCCCCCCCOCCC[C@@H](C)[C@H]1CC[C@H]2[C@@H]3[C@H](OCCCN)C[C@@H]4C[C@H](OCCCN)CC[C@]4(C)[C@H]3C[C@H](OCCCN)[C@]12C [Compound 114]	10 (≈ 14.7 µM)	3.0 (≈ 4.42 µM)	3.0	3.0	1.0	–	–	–	–
C[C@H](CCO)[C@H]1CC[C@H]2[C@@H]3[C@H](OCCCN)C[C@@H]4C[C@H](OCCCN)CC[C@]4(C)[C@H]3C[C@H](OCCCN)[C@]12C [Compound 109]	–	–	–	–	0.071	0.22	–	–	–
CC[C@H]1OC(=O)[C@H](C)[C@@H](O[C@H]2C[C@@](C)(OC)[C@@H](O)[C@H](C)O2)[C@H](C)[C@@H](O[C@@H]2O[C@H](C)C[C@H](N(C)C)[C@H]2O)[C@](C)(O)C[C@@H](C)C(=O)[C@H](C)[C@@H](O)[C@]1(C)O [erythromycin, reference compound]	–	–	–	–	–	–	–	–	MIC (E. coli (ATCC 25922); Escherichia coli, ATCC25922, E. coli (ATCC 25922), starting MIC in sensitization tests, read-out: MIC of erythromycin alone): 36 µg/mL; MIC of the antibiotic alone [4]: 240 μg/mL to 5 μg/mL with P. aureginosa (ATCC 27853).
polymyxin B [PMB, reference compound]	–	–	–	–	–	–	–	–	MBC (E. coli (ATCC 25922); Table 10, Escherichia coli ATCC 25922): 1.8 µg/mL; MBC [6]: >100 µg/mL
C[C@H](CCCOCCC[C@@H](C)[C@H]1CC[C@H]2[C@@H]3[C@H](OCCCN)C[C@@H]4C[C@H](OCCCN)CC[C@]4(C)[C@H]3C[C@H](OCCCN)[C@]12C)[C@H]1CC[C@H]2[C@@H]3[C@H](OCCCN)C[C@@H]4C[C@H](OCCCN)CC[C@]4(C)[C@H]3C[C@H](OCCCN)[C@]12C [Compound 12]	–	–	–	–	–	–	4 (≈ 3.59 µM)	1.5	MBC (E. coli (ATCC 10798) [1]; Table 1, E. coli (ATCC 10798)): 4 µg/mL (≈ 3.59 µM); MBC (with erythromycin) (E. coli (ATCC 10798) [2]; E. coli (ATCC 10798)): 2.5 µg/mL; MIC: concentration required to lower the MIC of novobiocin from >500 μg/mL to 1 μg/mL (E. coli (ATCC 10798) [3]; Table 3, E. coli (ATCC 10798)): 2.5 µg/mL
COCCC[C@@H](C)[C@H]1CC[C@H]2[C@@H]3[C@H](OCCCN)C[C@@H]4C[C@H](OCCCN)CC[C@]4(C)[C@H]3C[C@H](OCCCN)[C@]12C [Compound 111]	33 (≈ 56.9 µM)	30 (≈ 51.7 µM)	1.0	20	0.048	0.069	–	–	(d) Concentration required to lower the MIC of novobiocin from >500 to 1 μg/mL (E. coli (ATCC 10798) [3]): 2.0 µg/mL
C[C@H](CCCN(C)Cc1ccccc1)[C@H]1CC[C@H]2[C@@H]3[C@H](OCCCCN)C[C@@H]4C[C@H](OCCCCN)CC[C@]4(C)[C@H]3C[C@H](OCCCCN)[C@]12C [Compound 3]	–	–	–	–	–	–	6 (≈ 8.44 µM)	1.5	MIC [4]: 16 µg/mL (≈ 22.5 µM); MIC: concentration required to lower the MIC of erythromycin from 240 μg/mL to 5 μg/mL [5]: 6 µg/mL
CC(O)[C@H]1CC[C@H]2[C@@H]3[C@H](OCCCN)C[C@@H]4C[C@H](OCCCN)CC[C@]4(C)[C@H]3C[C@H](OCCCN)[C@]12C (some centres unmarked) [Compound 11]	>160	140 (≈ 267 µM)	20	180	0.16	0.29	140 (≈ 267 µM)	40	MBC (E. coli (ATCC 10798) [1]; Table 1, E. coli (ATCC 10798)): >160 µg/mL; MBC (with erythromycin) (E. coli (ATCC 10798) [2]; E. coli (ATCC 10798)): >160 µg/mL; MIC: concentration required to lower the MIC of novobiocin from >500 μg/mL to 1 μg/mL (E. coli (ATCC 10798) [3]; Table 3, E. coli (ATCC 10798)): 40 µg/mL; MBC (with novobiocin) (E. coli (ATCC 10798) [3]; Table 3, E. coli (ATCC 10798), novobiocin sensitization): 140 µg/mL; (d) Concentration required to lower the MIC of novobiocin from >500 to 1 μg/mL (E. coli (ATCC 10798) [3]): 40 µg/mL
C[C@H](CCCOS(=O)(=O)O)[C@H]1CC[C@H]2[C@@H]3[C@H](OCCCN)C[C@@H]4C[C@H](OCCCN)CC[C@]4(C)[C@H]3C[C@H](OCCCN)[C@]12C [Compound 132]	–	–	–	–	–	–	–	–	MIC (E. coli (ATCC 10798) [1]; E. coli (ATCC 10798)): 60 µg/mL (≈ 92.9 µM); concentration required to lower the MIC of erythromycin to 1 μg/mL (E. coli (ATCC 10798) [2]; E. coli (ATCC 10798)): 4.0 µg/mL
